The values that follow come from patent US20230180804A1, “FLAVOR COMPOSITION, AND FOOD AND BEVERAGE” (TAKASAGO INTERNATIONAL CORPORATION, priority 2020, published 2023).

One experiment has as its target T1, olfactory receptor OR9Q2 (Homo sapiens, UniProt Q8NGE9).
T1 construct: 20 N-terminal amino acid residues of bovine rhodopsin (Rho tag); expressed in transfected cells; host or cells: HEK293T
T1 sequence (Q8NGE9 1-314): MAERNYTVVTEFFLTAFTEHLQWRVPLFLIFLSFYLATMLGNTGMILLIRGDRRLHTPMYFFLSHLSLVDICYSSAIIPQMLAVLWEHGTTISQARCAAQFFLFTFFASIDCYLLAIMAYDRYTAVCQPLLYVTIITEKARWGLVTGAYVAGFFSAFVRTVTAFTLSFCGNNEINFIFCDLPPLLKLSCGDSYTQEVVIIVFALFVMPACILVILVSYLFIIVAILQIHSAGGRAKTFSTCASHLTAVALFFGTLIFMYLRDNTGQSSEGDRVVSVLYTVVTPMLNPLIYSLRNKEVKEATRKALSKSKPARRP
Description: OR9Q2 response inhibitory effect for p-cresol, luciferase reporter gene assay. Format: cell-based. The settings on record: p-cresol 100 µM mixed with various concentrations of compound; cells expressing OR9Q2; ratio of Fold Increase value (FIGS. 1 to 11). How it is done: The human olfactory receptor gene was obtained by cloning from Human Genomic DNA: Female (Promega) by PCR method based on the sequence information registered in GenBank. The 20 N-terminal amino acid residues of bovine rhodopsin were incorporated into the pME18S vector, and the obtained human olfactory receptor gene was incorporated downstream thereof to obtain a human olfactory receptor gene expression vector.
In 10 µL of Opti-MEM I (gibco), 0.05 µg of human olfactory receptor gene expression vector, 0.01 µg of RTP1S vector, 0.01 µg firefly luciferase vector pGL4.29 (Promega) containing cAMP response element promoter, and 0.005 µg of Renilla luciferase vector pGL4.74 (Promega) containing thymidine kinase promoter were dissolved to prepare a gene solution (for one well). HEK293T cells were seeded at 100 µL each in a 96-well plate (Biocoat, Coming) at the number of cells reaching confluence after 24 hours, and a gene solution was added to each well by the lipofection method according to the usage of Lipofectamine 3000 to introduce genes into the cells, and the cells were cultured at 37° C. in a 5% carbon dioxide atmosphere for 24 hours.
After removing the culture medium, the resultant was prepared with CD293 (gibco) medium ([…] added) so as to have a concentration for measuring the aroma substance to be tested, 50 µL of which was added each and stimulated for 3 hours, and then luciferase activity was measured according to the method of using the Dual-Luciferase Reporter Assay System (Promega). The response intensity of the olfactory receptor polypeptide was expressed as a Fold Increase value obtained by dividing the luciferase activity produced by stimulating the aroma substance by the luciferase activity produced in the test system containing no aroma substance.
p-Cresol at 100 µM was mixed with various concentrations of 1-oxacycloheptadecan-7-en-2-one, 1-oxacycloheptadecan-8-en-2-one, isoambrettolide, pentalide, muscone, civetone, 8-2-decenolactone, cinnamic aldehyde, […], sclareolide, and ethyl maltol, and receptor responses were measured in cells expressing OR9Q2. The ratio of the Fold Increase value in the test in which each compound was mixed was calculated, where the Fold Increase value in the test in none of these compounds was mixed was set to 100. FIGS. 1 to 11 present the results.

A short description of experiment [1]: Sensory evaluation of p-cresol odor masking in p-cresol-containing citrus-flavored beverage. As to conditions: for p-Cresol Odor Intensity: beverage with 50 ppb p-cresol, average score of 7 panelists, scale 0-4; for concentration at which the compound masks the p-cresol odor and does not affect the citrus flavor, lower limit / concentration at which the compound masks the p-cresol odor and does not affect the citrus flavor, upper limit: citrus-flavored beverage with 50 ppb p-cresol. The protocol:
To 2 g of lemon flavor obtained by making lemon oil into an essence, purified water was added to adjust the total amount to 1000 ml. To this citrus-flavored beverage, p-cresol adjusted to a concentration of 1% by mass with 95% ethanol was added to 50 ppb in the citrus-flavored beverage. To this p-cresol-containing citrus-flavored beverage, 1-oxacycloheptadecan-7-en-2-one was added at the concentrations presented in Table 1 to confirm the p-cresol odor intensity (masking effect) and the influence on the citrus flavor of each sample.
For the test, seven skilled panelists were selected to perform sensory evaluation. The p-cresol odor intensity of the p-cresol-containing citrus-flavored beverage without added l-oxacycloheptadecan-7-en-2-one was determined as “Rating: 4,” and the p-cresol odor intensity of the p-cresol-free citrus-flavored beverage was determined as “Rating: 0,” and the p-cresol odor intensity (masking effect) of each sample was relatively evaluated according to the following evaluation criteria.
In addition, the influence of the citrus-flavored beverage on the citrus flavor was evaluated absolutely according to the following evaluation criteria for the presence or absence of off- flavor other than p-cresol odor and citrus flavor (Off-Flavor Intensity).
The results are as in Table 1, presenting the average score of the evaluation results for each panelist.

SMILES strings stand for the structures.

For `O=C1CCCCCCC/C=C\CCCCCCC1` [Civetone, civetone], the “effect of suppressing the response of OR9Q2 to p-cresol” value (“effect … to p-cresol” for short) at olfactory receptor OR9Q2 is “suppressing the response of OR9Q2 to p-cresol in a concentration-dependent manner”. Besides, the “p-Cresol Odor Intensity” value is 3.7 points in experiment [1] (0.001 ppt added); 2.7 points in experiment [1] (0.01 ppt added); 2.3 points in experiment [1] (0.1 ppt added); 1.0 points in experiment [1] (1 ppb added); 1.9 points in experiment [1] (1 ppt added); 0.9 points in experiment [1] (10 ppb added). The “p-Cresol Odor Intensity” value in experiment [1] (10 ppt added) is 1.6 points; in experiment [1] (100 ppb added), 0.4 points; in experiment [1] (100 ppt added), 1.1 points. For the same molecule, the “concentration at which the compound masks the p-cresol odor and does not affect the citrus flavor, lower limit” value in experiment [1] is at least 0.01 ppt. Further, the “concentration at which the compound masks the p-cresol odor and does not affect the citrus flavor, upper limit” value in experiment [1] is given as at most 1 ppb.
As for `CCc1occc(=O)c1O` [Ethyl Maltol, ethyl maltol], the “effect … to p-cresol” value at olfactory receptor OR9Q2 is given as “suppressing the response of OR9Q2 to p-cresol in a concentration-dependent manner”. Also, the “p-Cresol Odor Intensity” value in experiment [1] (1 ppb added) is 2.3 points; in experiment [1] (1 ppm added), 1.4 points; in experiment [1] (10 ppb added), 2.0 points; in experiment [1] (10 ppm added), 1.3 points; in experiment [1] (10 ppt added), 3.7 points; in experiment [1] (100 ppb added) it was 1.6 points. Besides, the “p-Cresol Odor Intensity” value in experiment [1] (100 ppm added) was 0.4 points; in experiment [1] (100 ppt added) it was 2.7 points. The “concentration at which the compound masks the p-cresol odor and does not affect the citrus flavor, lower limit” value in experiment [1] was at least 100 ppt. Moreover, the “concentration at which the compound masks the p-cresol odor and does not affect the citrus flavor, upper limit” value in experiment [1] is at most 10 ppm.
Turning to `C[C@@H]1CCCCCCCCCCCCC(=O)C1` [Muscone, muscone], at olfactory receptor OR9Q2, the “effect … to p-cresol” value is reported as “suppressing the response of OR9Q2 to p-cresol in a concentration-dependent manner”. Also, the “p-Cresol Odor Intensity” value in experiment [1] (0.001 ppt added) is 3.7 points; in experiment [1] (0.01 ppt added), 2.7 points; in experiment [1] (0.1 ppt added), 2.4 points; in experiment [1] (1 ppb added), 0.9 points; in experiment [1] (1 ppt added), 2.1 points; in experiment [1] (10 ppb added), 0.4 points. Besides, the “p-Cresol Odor Intensity” value in experiment [1] (10 ppt added) is given as 1.9 points; in experiment [1] (100 ppb added), 0.3 points; in experiment [1] (100 ppt added), 1.7 points. The “concentration at which the compound masks the p-cresol odor and does not affect the citrus flavor, lower limit” value in experiment [1] is given as at least 0.01 ppt. Also, in experiment [1], the “concentration at which the compound masks the p-cresol odor and does not affect the citrus flavor, upper limit” value is reported as at most 1 ppb.
`CC1(C)CCC[C@]2(C)[C@H]3CC(=O)O[C@]3(C)CC[C@@H]12` [Sclareolide, sclareolide]: the “effect … to p-cresol” value at olfactory receptor OR9Q2 is “suppressing the response of OR9Q2 to p-cresol in a concentration-dependent manner”. In addition, the “p-Cresol Odor Intensity” value came to 2.1 points in experiment [1] (1 ppb added); 1.0 points in experiment [1] (1 ppm added); 1.9 points in experiment [1] (10 ppb added); 0.4 points in experiment [1] (10 ppm added); 3.6 points in experiment [1] (10 ppt added); 1.1 points in experiment [1] (100 ppb added). Further, the “p-Cresol Odor Intensity” value in experiment [1] (100 ppt added) was 2.6 points. The “concentration at which the compound masks the p-cresol odor and does not affect the citrus flavor, lower limit” value in experiment [1] is on record as at least 100 ppt. For the same molecule, in experiment [1], the “concentration at which the compound masks the p-cresol odor and does not affect the citrus flavor, upper limit” value was at most 1 ppm.
As to `C=C1CC[C@H]2O[C@]2(C)CC[C@@H]2[C@@H]1CC2(C)C` [β-caryophyllene Oxide, β-caryophyllene oxide], the “effect … to p-cresol” value at olfactory receptor OR9Q2 is “suppressing the response of OR9Q2 to p-cresol in a concentration-dependent manner”. Besides, the “p-Cresol Odor Intensity” value is recorded as 2.1 points in experiment [1] (1 ppb added); 1.0 points in experiment [1] (1 ppm added); 1.7 points in experiment [1] (10 ppb added); 1.0 points in experiment [1] (10 ppm added); 3.9 points in experiment [1] (10 ppt added); 1.6 points in experiment [1] (100 ppb added). Also, the “p-Cresol Odor Intensity” value came out at 0.4 points in experiment [1] (100 ppm added) and 2.6 points in experiment [1] (100 ppt added). The “concentration at which the compound masks the p-cresol odor and does not affect the citrus flavor, lower limit” value in experiment [1] is on record as at least 100 ppt. Also, in experiment [1], the “concentration at which the compound masks the p-cresol odor and does not affect the citrus flavor, upper limit” value was at most 1 ppm.
In the case of `CCCCCC1CC=CC(=O)O1` (stereo not shown) [δ-2-Decenolactone, δ-2-decenolactone], the “effect … to p-cresol” value at olfactory receptor OR9Q2 was “suppressing the response of OR9Q2 to p-cresol in a concentration-dependent manner”. Also, the “p-Cresol Odor Intensity” value came to 2.3 points in experiment [1] (1 ppb added); 1.3 points in experiment [1] (1 ppm added); 3.9 points in experiment [1] (1 ppt added); 2.0 points in experiment [1] (10 ppb added); 0.7 points in experiment [1] (10 ppm added); 2.7 points in experiment [1] (10 ppt added). The “p-Cresol Odor Intensity” value in experiment [1] (100 ppb added) is reported as 1.6 points; in experiment [1] (100 ppt added), 2.4 points. The “concentration at which the compound masks the p-cresol odor and does not affect the citrus flavor, lower limit” value in experiment [1] was at least 10 ppt. The “concentration at which the compound masks the p-cresol odor and does not affect the citrus flavor, upper limit” value in experiment [1] is reported as at most 100 ppb.
